In US4439426A, “Semisynthetic macrolidic antibiotics, intermediate compounds for their preparation and related pharmaceutical compositions containing them” (priority 1981, dated 1984):

How the values were obtained:
[1] = Stability in acidic environment at 25° C. (half-life of initial microbiological activity); assay type: physicochemical; settings: aqueous solution
Method: Stability in acidic environnment at 25° C. of the novel
Note: t 1/2 represents the time for reducing to one half the initial powe
of the antibiotic determined by microbiological method through diffusion
on a plate using the test stock Microccocus luteus (Sarcina lutea) ATCC

[2] = tested on: Streptococcus pneumoniae ATCC 6303 LRP 35; test: Bacteriostatic power in liquid medium (MIC); assay type: cell-based; settings: Streptococcus pneumoniae, ATCC6303, read-out: Minimum inhibiting concentration
In short: (§1)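 Growth inhibition endpoint, expressed as MIC, on Gram-negative and Gram-positive stocks grown aerobically or anaerobically.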

[3] = tested on: Streptococcus faecalis subs. zymogenes ATCC 12958 LRP 61; test: Bacteriostatic power in liquid medium (MIC); assay type: cell-based; settings: Enterococcus faecalis, ATCC12958, read-out: Minimum inhibiting concentration
In short: as §1

[4] = tested on: Staphylococcus aureus ATCC 6538 P LRP 39; test: Bacteriostatic power in liquid medium (MIC); assay type: cell-based; settings: Staphylococcus aureus, ATCC6538, read-out: Minimum inhibiting concentration
In short: as §1

[5] = tested on: Corynebacterium diphteriae LRP 24; test: Bacteriostatic power in liquid medium (MIC); assay type: cell-based; settings: Corynebacterium, LRP24, read-out: Minimum inhibiting concentration
In short: as §1

[6] = tested on: Streptococcus pyogenes ATCC 8668 LRP 34; test: Bacteriostatic power in liquid medium (MIC); assay type: cell-based; settings: Streptococcus pyogenes, ATCC8668, read-out: Minimum inhibiting concentration
In short: as §1

Bacillus subtilis LRP 25 = test: Bacteriostatic power in solid medium (MIC); assay type: cell-based; settings: Bacillus subtilis, LRP25, read-out: Minimum inhibiting concentration
In short: as §1

[7] = tested on: Staphylococcus aureus ATCC 14154 LRP 78; test: Bacteriostatic power in solid medium (MIC); assay type: cell-based; settings: Staphylococcus aureus, ATCC14154, read-out: Minimum inhibiting concentration
In short: as §1

Shigella sonnei LRP 5 = test: Bacteriostatic power in solid medium (MIC); assay type: cell-based; settings: LRP5, read-out: Minimum inhibiting concentration
In short: as §1

[8] = tested on: Fusobacteriumnecrophroum ATCC 27852 LRP 210; test: Bacteriostatic power in solid medium (MIC); assay type: cell-based; settings: read-out: Minimum inhibiting concentration
In short: as §1

[9] = tested on: Neisseria gonorrhoeae ATCC 19424 LRP 214; test: Bacteriostatic power in solid medium (MIC); assay type: cell-based; settings: Neisseria gonorrhoeae, ATCC19424, read-out: Minimum inhibiting concentration
In short: as §1

[10] = tested on: Klelsiella pneumoniae LRP 54; test: Bacteriostatic power in solid medium (MIC); assay type: cell-based; settings: read-out: Minimum inhibiting concentration
In short: as §1

[11] = tested on: Streptococcus pneumoniae ATCC 6303 LRP 35; test: Bacteriostatic power in solid medium (MIC); assay type: cell-based; settings: Streptococcus pneumoniae, ATCC6303, read-out: Minimum inhibiting concentration
In short: as §1

[12] = tested on: Staphylococcus aureus ATCC 6538P LRP 39; test: Bacteriostatic power in solid medium (MIC); assay type: cell-based; settings: Staphylococcus aureus, ATCC6538P, read-out: Minimum inhibiting concentration
In short: as §1

[13] = tested on: Micrococcus luteus ATCC 9341 LRP 6; test: Bacteriostatic power in solid medium (MIC); assay type: cell-based; settings: Micrococcus luteus, ATCC9341, read-out: Minimum inhibiting concentration
In short: as §1

[14] = tested on: Staphylococcus aureus ATCC 6538P LRP 14; test: Bacteriostatic power in solid medium (MIC); assay type: cell-based; settings: Staphylococcus aureus, ATCC6538P, read-out: Minimum inhibiting concentration
In short: as §1

[15] = tested on: Mycoplasma hominis I ATCC 14027 LRP 211; test: Bacteriostatic power in solid medium (MIC); assay type: cell-based; settings: Metamycoplasma hominis, ATCC14027, read-out: Minimum inhibiting concentration
In short: as §1

[16] = tested on: Streptococcus pyogenes ATCC 8668 LRP 197; test: Bacteriostatic power in solid medium (MIC); assay type: cell-based; settings: Streptococcus pyogenes, ATCC8668, read-out: Minimum inhibiting concentration
In short: as §1

[17] = tested on: Haemophilus influenzae ATCC 19418 LRP 213; test: Bacteriostatic power in solid medium (MIC); assay type: cell-based; settings: Haemophilus influenzae, ATCC19418, read-out: Minimum inhibiting concentration
In short: as §1

[18] = tested on: Streptococcus pneumoniae ATCC 6303 LRP 52; test: Bacteriostatic power in solid medium (MIC); assay type: cell-based; settings: Streptococcus pneumoniae, ATCC6303, read-out: Minimum inhibiting concentration
In short: as §1

[19] = tested on: Proteus vulgaris ATCC 6380 LRP 13; test: Bacteriostatic power in solid medium (MIC); assay type: cell-based; settings: Proteus vulgaris, ATCC6380, read-out: Minimum inhibiting concentration
In short: as §1

[20] = tested on: Acholeplasma laidlawii ATCC 23206 LRP 204; test: Bacteriostatic power in solid medium (MIC); assay type: cell-based; settings: Acholeplasma laidlawii, ATCC23206, read-out: Minimum inhibiting concentration
In short: as §1

[21] = tested on: Streptococcus faecalis LRP 7; test: Bacteriostatic power in solid medium (MIC); assay type: cell-based; settings: Enterococcus faecalis, LRP7, read-out: Minimum inhibiting concentration
In short: as §1

[22] = tested on: Corynebacterium diphteriae LRP 24; test: Bacteriostatic power in solid medium (MIC); assay type: cell-based; settings: Corynebacterium, LRP24, read-out: Minimum inhibiting concentration
In short: as §1

[23] = tested on: Streptococcus pyogenes ATCC 8668 LRP 34; test: Bacteriostatic power in solid medium (MIC); assay type: cell-based; settings: Streptococcus pyogenes, ATCC8668, read-out: Minimum inhibiting concentration
In short: as §1

[24] = tested on: Bacteroides fragilis ATCC 23745 LRP 205; test: Bacteriostatic power in solid medium (MIC); assay type: cell-based; settings: Bacteroides fragilis, ATCC23745, read-out: Minimum inhibiting concentration
In short: as §1

[25] = tested on: Streptococcus pneumoniae ATCC 6303 LRP 53; test: Bacteriostatic power in solid medium (MIC); assay type: cell-based; settings: Streptococcus pneumoniae, ATCC6303, read-out: Minimum inhibiting concentration
In short: as §1

[26] = tested on: Pseudomonas aeruginosa LRP 9; test: Bacteriostatic power in solid medium (MIC); assay type: cell-based; settings: Pseudomonas aeruginosa, LRP9, read-out: Minimum inhibiting concentration
In short: as §1

[27] = tested on: Micrococcus luteus ATCC 15957 LRP 193; test: Bacteriostatic power in solid medium (MIC); assay type: cell-based; settings: Micrococcus luteus, ATCC15957, read-out: Minimum inhibiting concentration
In short: as §1

Escherichia coli LRP 50 = test: Bacteriostatic power in solid medium (MIC); assay type: cell-based; settings: Escherichia coli, LRP50, read-out: Minimum inhibiting concentration
In short: as §1

[28] = tested on: Streptococcus faecalis subsp. zymogenes ATCC 12958 LRP 61; test: Bacteriostatic power in solid medium (MIC); assay type: cell-based; settings: Enterococcus faecalis, ATCC12958, read-out: Minimum inhibiting concentration
In short: as §1

[29] = tested on: Streptococcus faecalis subs. zymogenes LRP 61; test: Minimum bactericidal concentration (MBC); assay type: cell-based
Text: (§2) the bacterial power, expressed as the minimum bactericidal power (MBC) against some Gram positive aerobic stocks (table 5).

[30] = tested on: Streptococcus pneumoniae ATCC 6303 LRP 35; test: Minimum bactericidal concentration (MBC); assay type: cell-based
Text: as §2

[31] = tested on: Staphylococcus aureus ATCC 6538 P LRP 39; test: Minimum bactericidal concentration (MBC); assay type: cell-based
Text: as §2

[32] = tested on: Corynebacterium diphteriae LRP 24; test: Minimum bactericidal concentration (MBC); assay type: cell-based
Text: as §2

[33] = tested on: Streptococcus pyogenes ATCC 8668 LRP 34; test: Minimum bactericidal concentration (MBC); assay type: cell-based
Text: as §2

[34] = tested on: Clostridium perfrigens ATCC 3624 LRP 206; test: microbe, parasite or virus in culture; assay type: cell-based; settings: ATCC3624, solid medium, anaerobic, read-out: Minimum inhibiting concentration
In short: as §1

Salmonella typhy LRP 8 = test: microbe, parasite or virus in culture; assay type: cell-based; settings: LRP8, solid medium, read-out: Minimum inhibiting concentration
In short: as §1

CC[C@H]1OC(=O)[C@H](C)[C@@H](O[C@H]2C[C@H](OC)[C@@H](O)[C@H](C)O2)[C@H](C)[C@@H](O[C@@H]2O[C@H](C)C[C@H](N(C)C)[C@H]2O)[C@](C)(O)C[C@](C)(F)C(=O)[C@H](C)[C@@H](O)[C@H]1C [P-80204, 3-O-oleandrosyl-5-O-desosaminyl-(8S)-8-fluoroerythronolide B]
0.024 µg/mL: MIC [2] | MIC [5]
25 µg/mL: MIC [7] | MIC (Shigella sonnei LRP 5) | MIC [10] | MIC [15] | MIC [19] | MIC [26] | MIC [27] | MIC (Escherichia coli LRP 50) | MIC (Salmonella typhy LRP 8)
6.25 µg/mL: MIC [17] | MBC ([29]; Enterococcus faecalis, read-out: Minimum bactericidal concentration (MBC))
16: MBC/MIC [29] | MBC/MIC [31] | MBC/MIC [32]
3.12 µg/mL: MIC [20] | MIC [24] | MBC ([31]; Staphylococcus aureus, ATCC6538, read-out: Minimum bactericidal concentration (MBC))
12.5 µg/mL: MIC [8]
2: MBC/MIC [30]
0.195 µg/mL: MIC [4] | MIC (Bacillus subtilis LRP 25)
0.049 µg/mL: MIC [6] | MIC [11] | MIC [13] | MIC [16] | MIC [18] | MIC [22] | MIC [23] | MIC [25] | MBC ([30]; Streptococcus pneumoniae, ATCC6303, read-out: Minimum bactericidal concentration (MBC))
0.39 µg/mL: MIC [3] | MIC [9] | MIC [12] | MIC [14] | MIC [21] | MIC [28] | MBC ([32]; Corynebacterium, LRP24, read-out: Minimum bactericidal concentration (MBC)) | MBC ([33]; Streptococcus pyogenes, ATCC8668, read-out: Minimum bactericidal concentration (MBC))
8: MBC/MIC [33]
25 h: half-life ([1]; pH 2)
1.56 µg/mL: MIC [34]
100 h: half-life ([1]; pH 3)
